Results: US20090326031A1, “ANTIVIRAL USE OF CATIONIC SURFACTANT” (priority 2006, published 2009)

Columns and labels:
[1] = test system: Clostridium perfringens ATCC 77454; format: cell-based; conditions: Gram + Bacteria
[2] = test system: Alcaligenes faecalis ATCC 8750; test: minimum inhibitory concentration; format: cell-based; conditions: Gram − Bacteria
Excerpt: (§1) This compound is remarkable for its inhibitory action over the proliferation of different microorganisms, such as bacteria, fungi and yeasts.

[3] = test system: Arthrobacter oxydans ATCC 8010; test: minimum inhibitory concentration; format: cell-based; conditions: Gram + Bacteria
Excerpt: as §1

[4] = test system: Aspergillus niger ATCC14604; test: minimum inhibitory concentration; format: cell-based; conditions: Fungi
Excerpt: as §1

[5] = test system: Aureobasidium pullulans ATCC 9348; test: minimum inhibitory concentration; format: cell-based; conditions: Fungi
Excerpt: as §1

[6] = test system: Bacillus cereus var mycoide ATCC 11778; test: minimum inhibitory concentration; format: cell-based; conditions: Gram + Bacteria
Excerpt: as §1

[7] = test system: Bacillus subtilis ATCC 6633; test: minimum inhibitory concentration; format: cell-based; conditions: Gram + Bacteria
Excerpt: as §1

[8] = test system: Bordetella bronchiseptica ATCC 4617; test: minimum inhibitory concentration; format: cell-based; conditions: Gram − Bacteria
Excerpt: as §1

[9] = test system: Candida albicans ATCC 10231; test: minimum inhibitory concentration; format: cell-based; conditions: Yeast
Excerpt: as §1

[10] = test system: Chaetonium globosum ATCC 6205; test: minimum inhibitory concentration; format: cell-based; conditions: Fungi
Excerpt: as §1

[11] = test system: Citrobacter freundii ATCC 22636; test: minimum inhibitory concentration; format: cell-based; conditions: Gram − Bacteria
Excerpt: as §1

[12] = test system: Enterobacter aerogenes CECT 689; test: minimum inhibitory concentration; format: cell-based; conditions: Gram − Bacteria
Excerpt: as §1

Escherichia coli 0157H7 = test: minimum inhibitory concentration; format: cell-based; conditions: Gram − Bacteria
Excerpt: as §1

[13] = test system: Escherichia coli ATCC 8739; test: minimum inhibitory concentration; format: cell-based; conditions: Gram − Bacteria
Excerpt: as §1

[14] = test system: Gliocadium virens ATCC 4645; test: minimum inhibitory concentration; format: cell-based; conditions: Fungi
Excerpt: as §1

[15] = test system: Klebsiella pneumoniae var pneumoniae CECT 178; test: minimum inhibitory concentration; format: cell-based; conditions: Gram − Bacteria
Excerpt: as §1

[16] = test system: Lactobacillus delbrueckii ssp lactis CECT 372; test: minimum inhibitory concentration; format: cell-based; conditions: Gram + Bacteria
Excerpt: as §1

[17] = test system: Leuconostoc mesenteroides CETC 912; test: minimum inhibitory concentration; format: cell-based; conditions: Gram + Bacteria
Excerpt: as §1

[18] = test system: Listeria monocytogenes ATCC 7644; test: minimum inhibitory concentration; format: cell-based; conditions: Gram + Bacteria
Excerpt: as §1

[19] = test system: Micrococcus luteus ATCC 9631; test: minimum inhibitory concentration; format: cell-based; conditions: Gram + Bacteria
Excerpt: as §1

[20] = test system: Mycobacterium phlei ATCC 41423; test: minimum inhibitory concentration; format: cell-based; conditions: Gram + Bacteria
Excerpt: as §1

[21] = test system: Penicillium chrysogenum CECT 2802; test: minimum inhibitory concentration; format: cell-based; conditions: Fungi
Excerpt: as §1

[22] = test system: Penicillium funiculosum CECT 2914; test: minimum inhibitory concentration; format: cell-based; conditions: Fungi
Excerpt: as §1

[23] = test system: Proteus mirabilis CECT 170; test: minimum inhibitory concentration; format: cell-based; conditions: Gram − Bacteria
Excerpt: as §1

[24] = test system: Pseudomonas aeruginosa ATCC 9027; test: minimum inhibitory concentration; format: cell-based; conditions: Gram − Bacteria
Excerpt: as §1

[25] = test system: Rhodotorula rubra CECT 1158; test: minimum inhibitory concentration; format: cell-based; conditions: Yeast
Excerpt: as §1

[26] = test system: Saccharomyces cerevisiae ATCC 9763; test: minimum inhibitory concentration; format: cell-based; conditions: Yeast
Excerpt: as §1

[27] = test system: Salmonella typhimurium ATCC16028; test: minimum inhibitory concentration; format: cell-based; conditions: Gram − Bacteria
Excerpt: as §1

[28] = test system: Serratia marcenses CECT 274; test: minimum inhibitory concentration; format: cell-based; conditions: Gram − Bacteria
Excerpt: as §1

[29] = test system: Staphylococcus aureus ATCC 6538; test: minimum inhibitory concentration; format: cell-based; conditions: Gram + Bacteria
Excerpt: as §1

[30] = test system: parainfluenza bovine type 3 strain SF-4 (ATCC VR-281); test: activity of LAE against bovine parainfluenzae 3 virus (virus suspension, TCID50); format: cell-based; conditions: LAE 200 ppm
Experimental: (§2) In the following experiments the reduction factor has been calculated.
(§3) This reduction factor is calculated according to the following formula
(§4) R′ presents the reduction factor, v′ represents the volume of the sample of the test compound, a′ is the virus concentration in the added sample (^10log value), v″ is the volume of the final sample, a″ is the virus concentration after treatment (^10log value).
(§5) In the following experiments the clearance factor has been calculated. The clearance factor is calculated according to the following formula: […]
(§6) CL is the elimination factor (clearance factor), q′ is the initial concentration of virus (^10log value), q″ is the final concentration of virus (^10log value).
Eagle minimum essential medium (EMEM) was obtained from Earle (ICN Flow, Rf. 11-100-24), was supplemented with
10% of fetal bovine serum (Biowhittaker, Ref. D14-810F), […] of glutamine (Biowhittaker, Ref. 17-605E), non-essential amino acids (Biowhittaker, Ref. 13-114E), 100 units of penicillin, 100 μg of streptomycin/ml and 1 mM of sodium pyruvate. LAE (CAS 60372-77-2) Lot No. 10234 with a LAE Content of 88.7%.
The investigated strain of the parainfluenza bovine type 3 was SF-4 (ATCC VR-281).
(§7) LAE was investigated at a concentration of 200 ppm.
All experiments were performed at room temperature.
8 ml of deionized water was mixed with 1 ml of the virus suspension. 1 ml of LAE solution (containing 2000 ppm of LAE) was added, leading to a final LAE concentration of 200 ppm.
After 5 and 60 minutes samples for determination were taken. The design of the experiment allowed for conclusions of the effectivity of LAE after contact times of 5 and 60 minutes.
The number of virus particles in the experiment were determined by the quantitative assay TCID50 (infectious dose of cultured tissue).

Herpes virus type 1 = test: activity of LAE against Herpes virus type 1; format: cell-based, Herpes simplex virus; conditions: LAE 200 ppm
Experimental: as §2, §3, §4, §5, §6
The virus which was investigated was the type Simplex virus of the subfamily Alphaherpesvirinae in the family Herpesviridae.
The conditions for the determination are similarly chosen according to the ones of example 1.
as §7

Vaccinia virus = format: cell-based; conditions: LAE 200 ppm
metabolism in rats = format: in vivo; conditions: eventually excreted as carbon dioxide and urea
toxicological studies = format: in vivo; conditions: animals and humans

CCCCCCCCCCCC(=O)N[C@@H](CCCN=C(N)N)C(=O)OCC.Cl [LAE, ethyl ester of the lauramide of the arginine monohydrochloride]
M.I.C. [1]: 16 ppm | M.I.C. [2]: 64 ppm | M.I.C. [3]: 64 ppm | M.I.C. [4]: 32 ppm | M.I.C. [5]: 16 ppm | M.I.C. [6]: 32 ppm | M.I.C. [7]: 16 ppm | M.I.C. [8]: 128 ppm | M.I.C. [9]: 16 ppm | M.I.C. [10]: 16 ppm | M.I.C. [11]: 64 ppm | M.I.C. [12]: 32 ppm | M.I.C. (Escherichia coli 0157H7): 20 ppm | M.I.C. [13]: 32 ppm | M.I.C. [14]: 32 ppm | M.I.C. [15]: 32 ppm | M.I.C. [16]: 16 ppm | M.I.C. [17]: 32 ppm | M.I.C. [18]: 10 ppm | M.I.C. [19]: 128 ppm | M.I.C. [20]: 2 ppm | M.I.C. [21]: 128 ppm | M.I.C. [22]: 16 ppm | M.I.C. [23]: 32 ppm | M.I.C. [24]: 64 ppm | M.I.C. [25]: 16 ppm | M.I.C. [26]: 32 ppm | M.I.C. [27]: 32 ppm | M.I.C. [28]: 32 ppm | M.I.C. [29]: 32 ppm | Clearance factor ([30]; 60 min contact, 10log values): ≧6.29 ± 0.32 | Reduction factor ([30]; 60 min contact, 10log values): ≧6.46 ± 0.32 | remaining virus after treatment for 60 minutes ([30]; 60 minutes): no remaining virus organisms were detected | Virus concentration 60 min after addition of LAE ([30]; room temperature, 10log value, TCID50, before addition 8.09 ± 0.33): ≦1.63 | Virus concentration 60 min after addition of LAE (Herpes virus type 1; 10log value, before addition 7.94 ± 0.37): ≦1.70 | Clearance factor (Herpes virus type 1; 60 min contact, 10log values): ≧6.24 ± 0.37 | Reduction factor (Herpes virus type 1; 60 min contact, 10log values): ≧6.18 ± 0.36 | remaining virus after treatment for 60 minutes (Herpes virus type 1; 60 minutes): no remaining virus organisms were detected | Virus concentration 60 min after addition of LAE (Vaccinia virus; 10log value, before addition 5.94 ± 0.34): 2.40 | living virus after treatment for 5 minutes (Vaccinia virus; 5 minutes): great reduction of the number of living microorganisms | Clearance factor (Vaccinia virus; 60 min contact, 10log values): 3.54 ± 0.34 | Reduction factor (Vaccinia virus; 60 min contact, 10log values): 3.92 ± 0.36 | living virus after treatment for 60 minutes (Vaccinia virus; 60 minutes): substantial decrease of the number of living Vaccinia virus organisms | absorption and metabolism (metabolism in rats): fast absorption and metabolisation into naturally-occurring amino acids and the fatty acid lauric acid | toxicity (toxicological studies): completely harmless to animals and humans
